Laboratory results published in PubChem BioAssay (NCI).
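Protocol summary: plate cells (96-well), add compound at 5 concentrations, incubate 48 h, interpolate endpoints linearly. The concentration for 50% growth inhibition is given as GI50. Definition used: TGI = concentration required for complete inhibition of growth.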

Legend:
Test in all cases: NCI-60 cell line screen, 48 h
MOLT-4 leukemia = system: MOLT-4 leukemia
OVCAR-4 ovarian = system: OVCAR-4 ovarian
UACC-257 melanoma = system: UACC-257 melanoma
NCI-H23 lung = system: NCI-H23 lung
CAKI-1 renal = system: CAKI-1 renal
SK-MEL-5 melanoma = system: SK-MEL-5 melanoma
UO-31 renal = system: UO-31 renal
SNB-19 CNS = system: SNB-19 CNS
OVCAR-3 ovarian = system: OVCAR-3 ovarian
A498 renal = system: A498 renal

| Structure (SMILES) | TGI (MOLT-4 leukemia) [µM] | TGI (OVCAR-4 ovarian) [µM] | TGI (UACC-257 melanoma) [µM] | TGI (NCI-H23 lung) [µM] | TGI (CAKI-1 renal) [µM] | TGI (SK-MEL-5 melanoma) [µM] | TGI (UO-31 renal) [µM] | TGI (SNB-19 CNS) [µM] | TGI (OVCAR-3 ovarian) [µM] | TGI (A498 renal) [µM] | GI50 (MOLT-4 leukemia) [µM] | GI50 (UACC-257 melanoma) [µM] | GI50 (NCI-H23 lung) [µM] | GI50 (CAKI-1 renal) [µM] | GI50 (SK-MEL-5 melanoma) [µM] | GI50 (UO-31 renal) [µM] |
| --- | --- | --- | --- | --- | --- | --- | --- | --- | --- | --- | --- | --- | --- | --- | --- | --- |
| O=C1C2=Cc3ccccc3CCN2c2ccc([N+](=O)[O-])cc21 | > 100 | > 100 | > 100 | > 100 | > 100 | > 100 | 97.7 | > 100 | > 100 | > 100 | – | – | – | – | – | – |
| COC(=O)C1(Cc2ccccc2C)Cc2ccc(C)cc2C1=O (stereo not given) | 74.7 | > 100 | > 100 | > 100 | > 100 | 32.1 | > 100 | > 100 | > 100 | > 100 | – | – | – | – | – | – |
| O=C1C(c2c(O)n(-c3ccccc3)c3ccccc23)=Nc2ccccc21 | > 100 | > 100 | > 100 | > 100 | > 100 | 69.8 | > 100 | > 100 | > 100 | 75.7 | – | – | – | – | – | – |
| O=[N+]([O-])c1ccc2nc(/C=C(\O)c3ccccc3)c(/C=C(\O)c3ccc(Cl)cc3)nc2c1 | > 100 | > 100 | > 100 | > 100 | > 100 | > 100 | > 100 | > 100 | > 100 | > 100 | – | – | – | – | – | – |
| Cc1[nH]c2ncn(N)c(=N)c2c1Cc1ccccc1 | > 100 | > 100 | > 100 | > 100 | > 100 | > 100 | > 100 | > 100 | > 100 | > 100 | – | – | – | – | – | – |
| CCCNc1c(Cl)cc(Cl)c2[nH]c3ccccc3c(=O)c12 | > 100 | > 100 | > 100 | > 100 | > 100 | > 100 | > 100 | 65.7 | > 100 | > 100 | – | – | – | – | – | – |
| CCOC(=O)c1c(C)n(-c2ccc(C)cc2)c2c1cc(O)c1[nH]c3c(c12)CCCC3 | 22.4 | 51.3 | 56.7 | 67 | > 100 | 24.3 | 27.9 | 67.5 | 51.1 | 56.2 | – | – | – | – | – | – |
| COC(=O)C1CCCCCCCCCCC12SCCCS2 (stereo not given) | 45 | 38.7 | 40.2 | > 100 | 96.3 | 41.9 | 38.8 | 83.2 | 41 | 49.7 | – | – | – | – | – | – |
| c1ncc(C23C4C5C6C4C2C6C53)[nH]1 (stereo not given) | > 100 | > 100 | > 100 | > 100 | > 100 | > 100 | > 100 | > 100 | > 100 | > 100 | – | – | – | – | – | – |
| O=c1[nH]nc(Cc2ccc(Cl)cc2)n1Nc1ccccc1 | > 100 | > 100 | > 100 | > 100 | > 100 | > 100 | > 100 | > 100 | > 100 | > 100 | – | – | – | – | – | – |
| C=CCSC1=N/C(=C\c2ccco2)C(=O)N1CC=C | > 100 | > 100 | > 100 | > 100 | > 100 | > 100 | > 100 | > 100 | > 100 | 94.1 | – | – | – | – | – | – |
| Nc1nc(Cl)cc(NCC2(CO)CC(O)C2)n1 (stereo not given) | > 100 | > 100 | > 100 | > 100 | > 100 | > 100 | > 100 | > 100 | > 100 | > 100 | – | – | – | – | – | – |
| CCCCC[C@H]1CC=CC(=O)O1 | 18.8 | 27.3 | 32.6 | > 100 | 10.4 | 21.3 | 24 | 28.2 | 21.9 | 9.03 | – | – | – | – | – | – |
| CN(N=O)C(N)=NC(=O)c1ccccc1 | > 100 | > 100 | > 100 | > 100 | > 100 | > 100 | > 100 | > 100 | > 100 | > 100 | – | – | – | – | – | – |
| COc1cccc(/C=N/[N-]C(N)=O)c1[O-].[OH3+].[Zn+2] | > 100 | > 100 | > 100 | > 100 | > 100 | > 100 | > 100 | > 100 | > 100 | > 100 | – | – | – | – | – | – |
| COC(=O)/C=C(\S/C(=C(/c1ccccc1)n1cc(C(=O)OC)c(C(=O)OC)n1)c1ccccc1)C(=O)OC | 12.4 | 29 | 23.9 | 38 | 6.66 | 44.5 | 5.25 | 40 | 8.29 | > 100 | – | – | – | – | – | – |
| N#Cc1c(-c2ccccc2)cc(Nc2ccc(F)cc2)n2c1nc1ccccc12 | > 100 | > 100 | 8.78 | > 27.4 | > 100 | 2.73 | 6.66 | > 100 | 19.3 | 12 | – | – | – | – | – | – |
| CC(=O)NC1C(OCc2ccccc2)OC(CO)C(O)C1OCC(=O)NC(C)C(=O)NC(CCC(=O)Nc1ccc2c(c1)CN1C(=O)c3ccccc3C1=N2)C(N)=O (stereo not given) | > 100 | > 100 | > 100 | > 100 | > 100 | > 100 | > 100 | > 100 | > 100 | > 100 | – | – | – | – | – | – |
| CC[n+]1c(/C=C/c2ccc(N(CCCl)CCCl)cc2)ccc2cc(Br)ccc21 | – | 7.98 | – | – | – | – | – | 2.57 | 2.22 | 6900 | 109 | 95.8 | 172 | 1650 | 135 | 1470 |
